Experimental data taken from patent publication US10072014B2 (Janssen Pharmaceutica NV, priority 2014, dated 2018).

Assays:
[1] = Induction of mydriasis; settings: Wiga, rat, in vivo, PO, rats
Protocol: 3) Induction of Mydriasis
The pupil diameter of Wiga rats was measured with a microscopic micrometer (1 unit= 1/24 mm). Criteria for drug-induced effects: pupil diameter>25 units for mydriasis (in controls: 1.9%) 1 h post-administration of the test compound (test 1) or 1, 2 or 3 h post-administration of the test compound (test 2, wherein the maximum pupil diameter over the full 3 h period is reported).

[2] = target: T1, human mGlu2 receptor (Homo sapiens, UniProt Q14416); test: [35S]GTPγS binding assay, negative allosteric modulation of mGluR2; format: biochemical
T1 construct: expressed in transfected cells; host or cells: CHO cells
T1 sequence (Q14416 19-872): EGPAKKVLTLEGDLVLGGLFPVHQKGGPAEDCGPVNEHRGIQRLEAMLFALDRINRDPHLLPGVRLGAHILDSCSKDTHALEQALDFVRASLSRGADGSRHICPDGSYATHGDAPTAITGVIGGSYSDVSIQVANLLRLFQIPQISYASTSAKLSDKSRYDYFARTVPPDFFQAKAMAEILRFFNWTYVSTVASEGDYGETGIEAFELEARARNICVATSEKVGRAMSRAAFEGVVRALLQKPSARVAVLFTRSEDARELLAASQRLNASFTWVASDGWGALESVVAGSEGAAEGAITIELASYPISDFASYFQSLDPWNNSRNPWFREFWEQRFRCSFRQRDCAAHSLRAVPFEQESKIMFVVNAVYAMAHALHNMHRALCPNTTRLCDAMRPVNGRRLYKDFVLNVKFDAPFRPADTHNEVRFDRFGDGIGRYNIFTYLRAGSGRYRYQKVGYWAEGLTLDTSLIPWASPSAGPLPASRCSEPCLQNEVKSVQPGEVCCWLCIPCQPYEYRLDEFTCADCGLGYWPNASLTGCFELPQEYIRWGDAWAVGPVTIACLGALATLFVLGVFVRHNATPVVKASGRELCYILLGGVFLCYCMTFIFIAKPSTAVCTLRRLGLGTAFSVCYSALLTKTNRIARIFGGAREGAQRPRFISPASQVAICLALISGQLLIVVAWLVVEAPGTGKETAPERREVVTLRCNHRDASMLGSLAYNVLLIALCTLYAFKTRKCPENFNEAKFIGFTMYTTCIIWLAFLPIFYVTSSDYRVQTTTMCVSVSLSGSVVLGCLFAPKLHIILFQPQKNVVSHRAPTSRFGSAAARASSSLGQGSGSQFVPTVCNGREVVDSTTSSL
Description: The compounds provided in the present invention are negative allosteric modulators of mGluR2. These compounds appear to inhibit glutamate responses by binding to an allosteric site other than the glutamate binding site. The response of mGluR2 to a concentration of glutamate is decreased when compounds of Formula (I) are present. Compounds of Formula (I) are expected to have their effect substantially at mGluR2 by virtue of their ability to reduce the function of the receptor. The effects of negative allosteric modulators tested at mGluR2 using the [^35S]GTPγS binding assay method described below and which is suitable for the identification of such compounds, and more particularly the compounds according to Formula (I), are shown in Table 7.
1) [^35S]GTPγS Binding Assay
The [^35S]GTPγS binding assay is a functional membrane-based assay used to study G-protein coupled receptor (GPCR) function whereby incorporation of a non-hydrolysable form of GTP, [^35S]GTPγS (guanosine 5′-triphosphate, labelled with […] ^35S), is measured. The G-protein a subunit catalyzes the exchange of guanosine 5′-diphosphate (GDP) by guanosine triphosphate (GTP) and on activation of the GPCR by an agonist, [^35S]GTPγS, becomes incorporated and cannot be cleaved to continue the exchange cycle (Harper (1998) Current Protocols in Pharmacology 2.6.1-10, John Wiley & Sons, Inc.). […] Here we describe the use of the [^35S]GTPγS binding assay using membranes from cells transfected with the human mGlu2 receptor and adapted from Schaffhauser et al. (Molecular Pharmacology, 2003, […]) for the detection of the negative allosteric modulation (NAM) properties of the compounds of this invention.
CHO-cells were cultured to pre-confluence and stimulated with 5 mM butyrate for 24 h. Cells were then collected by scraping in PBS and cell suspension was centrifuged (10 min at 4000 RPM in benchtop centrifuge). Supernatant was discarded and pellet gently resuspended in 50 mM Tris-HCl, pH 7.4 by mixing with an Ultra Turrax homogenizer. The suspension was centrifuged at 12,400 RPM (Sorvall F14S-6x250Y) for 10 minutes and the supernatant discarded. The pellet was homogenized in 5 mM Tris-HCl, pH 7.4 using an Ultra Turrax homogenizer and centrifuged again (13,000 RPM, 20 min, 4° C.). The final pellet was resuspended in 50 mM Tris-HCl, pH 7.4 and stored at −80° C. in appropriate aliquots before use. Protein concentration was determined by the Bradford method (Bio-Rad, USA) with bovine serum albumin as standard.
[^35S]GTPγS Binding Assay
Measurement of mGluR2 negative allosteric modulatory activity of test compounds was performed as follows. Test compounds and glutamate were diluted in assay buffer containing 10 mM HEPES acid, 10 mM HEPES salt, pH 7.4, 100 mM NaCl, 3 mM MgCl2 and 10 μM GDP. Human mGlu2 receptor-containing membranes were thawed on ice and diluted in assay buffer supplemented with 18 μg/ml saponin. Membranes were pre-incubated with compound together with a predefined (˜EC80) concentration of glutamate (60 μM) for 30 min at 30° C. After addition of [^35S]GTPγS (f.c. 0.1 nM), assay mixtures were shaken briefly and further incubated to allow [^35S]GTPγS incorporation on activation (30 minutes, 30° C.). Final assay mixtures contained 7 μg of membrane protein in 10 mM HEPES acid, 10 mM HEPES salt, pH 7.4, 100 mM NaCl, 3 mM MgCl2, 10 μM GDP and 10 μg/ml saponin. Total reaction volume was 200 μl. Reactions were terminated by rapid filtration through Unifilter-96 GF/B plates (Perkin Elmer, Massachusetts, USA) using a 96-well filtermate universal harvester. Filters were washed 6 times with ice-cold 10 mM NaH2PO4/10 mM Na2HPO4, pH 7.4. Filters were then air-dried, and 30 μl of liquid scintillation cocktail (Microscint-O) was added to each well. Membrane-bound radioactivity was counted in a Topcount.
The concentration-response curves of representative compounds of the present invention were generated using the Lexis software interface (developed at J&J). […]

Cc1ncc(-c2cnn3c2C(=O)N(c2ccc(C(F)(F)F)c(Cl)c2)C[C@@H]3C)[nH]1 [Compound 27]
melting point: 188.27 °C | ED50 ([1]; maximum pupil diameter >25 units over 1, 2 or 3 h post-administration, read-out: ED50 MYD Test 2): > 40 mg/kg | ED50 at 1 h ([1]; pupil diameter >25 units 1 h post-administration, read-out: ED50 MYD Test 1): > 10 mg/kg | Emax ([2]; maximal % inhibition relative to the control glutamate response (EC80 glutamate), read-out: GTPγS-hmGluR2 anGT Emax): 106% | IC50 ([2]; membranes from CHO cells transfected with human mGlu2 receptor, glutamate 60 μM (~EC80), read-out: GTPγS-hmGluR2 anGT pIC50 (converted)): 3.47 nM
